Like-named read-outs stand apart in the source and are kept apart here.

Consider 6 compounds from US20250206759A1, “FUSED RING COMPOUND, PHARMACEUTICAL COMPOSITION CONTAINING SAME, AND USE OF FUSED RING COMPOUND” (CHENGDU HYPERWAY PHARMACEUTICALS CO., LTD., priority 2022, published 2025).

In series [1] the test system is KRas G12D-mediated ERK phosphorylation. As to the kind of experiment: Inhibition of KRas G12D-mediated ERK phosphorylation in AGS cells. The format is cell-based. Particulars: read-out: AGS-pERK IC50. Here is the method: Day 1: AGS cells were seeded into 384-well cell culture plates and cultured overnight in a 37° C., 5% CO2 incubator.
Day 2: The compounds were added to the plates using Echo550 and incubated for 3 h in a 37° C., 5% CO2 incubator. Then cells were fixed with paraformaldehyde, permeated with methanol, and blocked with the blocking solution. Finally, a mixed solution of primary antibodies (rabbit anti pERK, mouse anti GAPDH) was added, and the mixture was incubated at 4° C. overnight.
Day 3: The mixed solution of primary antibodies was discarded, and a mixed solution of secondary antibodies (goat anti rabbit 800CW, goat anti mouse 680RD) was added. The mixture was incubated at room temperature in the dark. Finally, the cell culture plate was washed with PBST, and then inverted for 1 minute of centrifugation. The fluorescence signal values were read with Odyssey CLx.
ERK phosphorylation was calculated according to the following formula: […]
X: log value of compound concentration.
Y: average value of relative expression of p-ERK between replicate wells.

The next series concerns ASPC-1 cells. As to the kind of experiment: 3D cell proliferation inhibition test (CellTiter-Glo), ASPC-1 cells. The format is cell-based. Conditions: 7 days, read-out: ASPC-1 cells 3D CTG IC50. How it is done:
(§1) The diluted compounds to be tested were added to 384-well low-adhesion cell culture plates by using a nanoliter pipetting system (LABCYTE, P-0200). Then, the cells were plated and incubated in a 37° C., […] incubator for 7 days. Afterward, CellTiter-Glo® […] reagent was added, and the luminescent values were read by an Envision multifunctional microplate reader (the luminescent signal is proportional to the amount of ATP in the system, and the ATP content directly represents the number of viable cells in the system). Finally, the IC50 values (half-maximal inhibitory concentration) of the compounds were obtained by the XLFIT software using the nonlinear fitting formula.
(§2) a) The diluted compounds to be tested were added to 384-well low-adsorption cell culture plates by using a nanoliter pipetting system.
(§3) b) Cells were seeded into the 384-well plates in a) and then centrifuged at 1000 rpm for 1 min at room temperature, with a final DMSO concentration of compound being 0.5%. The plates were then incubated in a 37° C., 5% CO2 constant temperature incubator for 7 days.
(§4) c) CellTiter-Glo® 3D was added to the 384-well cell culture plates in b), shaken in the dark, and incubated at room temperature.
(§5) d) The luminescence values were read by using an Envision multifunctional microplate reader.
(§6) The IC50 (half-maximal inhibitory concentration) values of the compounds were obtained by using XLFIT software according to the following nonlinear fitting formula:
(§7) [formula] • X: log value of compound concentration. • Y: inhibition rate (%)
(§8) Inhibition rate (%)=100×(average value of negative control−compound)/(average value of negative control−average value of positive control)
(§9) Positive control: Medium only.
(In general: ATP-based viability assays read luminescence as a measure of living cells.)

Series [2] in a line: Pharmacokinetics of compounds in rats (oral). Format: in vivo, SD rats. Conditions: for AUC / Cmax: male SD rats. How it is done:
Male SD rats were purchased from Shanghai SIPPR-Bk Lab Animal Co., Ltd. Each test compound was administered orally (3 rats per group) once to SD rats for pharmacokinetic study. The test compounds were prepared on the day of administration. The test compounds were suspended in 5% DMSO+95% saline, and then vortexed for 2 min and ultrasonicated for 5 min to prepare the administration system. The animals were fasted for 10-14 h before oral administration, and the feeding was resumed 4 h after administration. After oral administration by gavage, pharmacokinetic samples were collected from SD rats through the jugular vein. The collection time points were: before administration, 15 min, 30 min, 1 h, 2 h, 4 h, 6 h, 8 h and 24 h after administration. Three whole blood samples were collected at each time point, with a collection volume of about 0.2 mL, and anticoagulated with sodium heparin. After blood samples were collected, they were immediately placed on ice and centrifuged to separate plasma within 1 hour (centrifugation conditions: 6800 rpm, 6 min, 2-8° C.). The collected plasma was stored in a −80° C. refrigerator before analysis.

Another series deals with GP2d cells. As to the kind of experiment: 3D cell proliferation inhibition test (CellTiter-Glo), GP2d cells. Format: cell-based. Conditions: 7 days, read-out: GP2d cells 3D CTG IC50. Here is the method: as §1, §2, §3, §4, §5, §6, §7, §8, §9
[3] abbreviates: male, SD, rat, plasma, po, 100 mg/kg, 100 mg/kg, read-out: AUC.
Setting [4] is: male, SD, rat, plasma, po, 100 mg/kg, 100 mg/kg, read-out: Cmax.

For the compound `Oc1cc(-c2ncc3c(N4CC5CCC(C4)N5)nc(OCC45CCCN4[C@@H](c4cc(F)c(F)c(F)c4)CC5)nc3c2F)c2c(F)c(F)ccc2c1` (single isomer, unassigned) [Example 223], the IC50 in series [1] came out at 0.74 nM; in the series on ASPC-1 cells (Homo sapiens, ASPC1, 168 h) it was 3.09 nM; in the series on GP2d cells (168 h), 0.67 nM. Besides, the AUC in series [2] (100 mg/kg) amounted to 404 ng·h/mL. In series [2] (100 mg/kg), this compound yielded a maximum concentration (Cmax) of 260 ng/mL.

Consider `Oc1cc(-c2ncc3c(N4C[C@H]5CC[C@@H](C4)N5)nc(OCC45CCCN4C(c4ccc6c(c4)OC(F)(F)O6)CC5)nc3c2F)c2c(F)c(F)ccc2c1` (stereo partly drawn) [Example 142, 4-(4-((1R,5S)-3,8-diazabicyclo[3.2.1]octan-3-yl)-2-((3-(2,2-difluorobenzo[d][1,3]dioxy-5-yl)tetrahydro-1H-pyrrolizin-7a(5H)-yl)methoxy)-8-fluoropyrido[4,3d]pyrimidin-7-yl)-5,6-difluoronaphthalen-2-ol], for which the IC50 was determined as 0.83 nM in series [1], 13.9 nM in the series with ASPC-1 cells and 1.15 nM in the series with GP2d cells. This compound displayed an AUC in series [2] (100 mg/kg) of 404 ng·h/mL. The compound also came in with a maximum concentration (Cmax) in series [2] (100 mg/kg) of 96 ng/mL.

In the case of `C#Cc1c(F)ccc2cc(O)cc(-c3ncc4c(N5CC6CCC(C5)N6)nc(OCC56CCCN5C(c5ccc7c(c5)C5CCC7O5)CC6)nc4c3F)c12` (centres unmarked) [Example 192], the IC50 in series [1] (Homo sapiens, AGS) turned out to be 1.8 nM; in the series on ASPC-1 cells (Homo sapiens, ASPC1, 168 h), 12.2 nM; with GP2d cells (168 h), 3.51 nM. Moreover, the area under the curve (AUC) in series [2] (setting [3]) came out at 284 ng·h/mL. The peak concentration (Cmax) in series [2] (setting [4]) is 96 ng/mL.

Regarding `Nc1cc(Cl)c(C(F)(F)F)c(-c2ncc3c(N4C[C@H]5CC[C@@H](C4)N5)nc(OCC45CCCN4C(c4ccc6c(c4)OC(F)(F)O6)CC5)nc3c2F)c1` (stereo partly drawn) [Example 161, 3-(4-((1R,5S)-3,8-diazabicyclo[3.2.1]octan-3-yl)-2-((3-(2,2-difluorobenzo[d][1,3]dioxy-5-yl)tetrahydro-1H-pyrrolizin-7a(5H)-yl)methoxy)-8-fluoropyridin[4,3-d]pyrimidin-7-yl)-5-chloro-4-(trifluoromethyl) aniline], the IC50 in the series with ASPC-1 cells turned out to be 46.9 nM. For the same compound, in series [2] (100 mg/kg), the AUC is 1080 ng·h/mL and the Cmax is 193 ng/mL. In addition, in the series with GP2d cells, the IC50 was 10.9 nM.

For the compound `Oc1cc(-c2ncc3c(N4CC5CCC(C4)N5)nc(OCC45CCCN4[C@@H](c4ccc(C(F)(F)F)c(F)c4)CC5)nc3c2F)c2c(F)c(F)ccc2c1` (mixture of isomers) [Example 225], the 50% inhibitory concentration (IC50) in series [1] (Homo sapiens, AGS) was 1.5 nM; in the series with ASPC-1 cells (Homo sapiens, ASPC1, 168 h) it was 11.1 nM; in the series with GP2d cells (168 h), 1.49 nM. For the same compound, the AUC in series [2] (setting [3]) amounted to 380 ng·h/mL. The Cmax in series [2] (setting [4]) was determined as 54 ng/mL.

For the compound `C#Cc1c(F)ccc2cc(O)cc(-c3ncc4c(N5CC6CCC(C5)N6)nc(OC[C@@]56CCCN5C[C@H](F)C6)nc4c3F)c12` [MRTX1133, reference compound], the concentration for half-maximal inhibition (IC50) is 1.2 nM in series [1], 10.9 nM in the series on ASPC-1 cells and 1.38 nM in the series on GP2d cells. Besides, the “oral pharmacokinetics (Cmax and AUC)” value in series [2] (SD rats) was “extremely poor”. Moreover, the results for the AUC result in series [2] (10 mg/kg) and in series [2] (100 mg/kg) were “No parameter” and 70 ng·h/mL, respectively. Moreover, the peak concentration (Cmax) in series [2] (10 mg/kg) is 1 to 2 ng/mL; in series [2] (100 mg/kg), 26 ng/mL.

The IC50 is the concentration that inhibits the measured activity by half. In general, AUC refers to concentration integrated over time. Usually Cmax stands for the peak of the concentration-time curve.
